Experimental data taken from ChEMBL document CHEMBL4393697, “Lipophilic efficient phenylthiazoles with potent undecaprenyl pyrophosphatase inhibitory activity” (Eur J Med Chem, 2019).
Converted amounts (≈) assume the structure as drawn. The source made the active and inactive calls. The calls are words filed in the database; no cut-off is given here.

How the values were obtained:
Enterococcus faecium [1] = assay: Antibacterial activity against vancomycin resistant Enterococcus faecium ATCC 700221 assessed as reduction in bacterial cell growth incubated for 18 to 20 hrs by broth microdilution method; assay type: functional
Staphylococcus aureus [2] = assay: Bactericidal activity against vancomycin resistant Staphylococcus aureus VRS10 assessed as reduction in bacterial cell growth incubated for 18 to 20 hrs followed by re-plating on tryptic soy agar plates at 37 degC for 18 hrs by broth microdilution assay; assay type: functional
Staphylococcus aureus [3] = assay: Antibacterial activity against vancomycin resistant Staphylococcus aureus VRS11a assessed as reduction in bacterial cell growth incubated for 18 to 20 hrs by broth microdilution method; assay type: functional
Staphylococcus aureus [4] = assay: Bactericidal activity against methicillin-resistant Staphylococcus aureus USA300 assessed as reduction in bacterial cell growth incubated for 18 to 20 hrs followed by re-plating on tryptic soy agar plates at 37 degC for 18 hrs by broth microdilution assay; assay type: functional
Staphylococcus aureus [5] = assay: Antibacterial activity against intracellular methicillin resistant Staphylococcus aureus USA400 infected in mouse J774 cells assessed as log10 reduction of viable bacterial cells incubated for 24 hrs followed by re-plating on tryptic soy agar plates at 37 degC for 18 to 22 hrs by broth microdilution assay; assay type: functional
Listeria monocytogenes [6] = assay: Antibacterial activity against Listeria monocytogenes ATCC 19111 assessed as reduction in bacterial cell growth incubated for 18 to 20 hrs by broth microdilution method; assay type: functional
Streptococcus pneumoniae [7] = assay: Antibacterial activity against Methicillin resistant Streptococcus pneumoniae ATCC 700677 assessed as reduction in bacterial cell growth incubated for 18 to 20 hrs by broth microdilution method; assay type: functional
Enterococcus faecalis [8] = assay: Bactericidal activity against vancomycin resistant Enterococcus faecalis ATCC 51299 assessed as reduction in bacterial cell growth incubated for 18 to 20 hrs followed by re-plating on tryptic soy agar plates at 37 degC for 18 hrs by broth microdilution assay; assay type: functional
Enterococcus faecalis [9] = assay: Antibacterial activity against vancomycin resistant Enterococcus faecalis ATCC 51299 assessed as reduction in bacterial cell growth incubated for 18 to 20 hrs by broth microdilution method; assay type: functional
Staphylococcus aureus [10] = assay: Bactericidal activity against Staphylococcus aureus NRS107 assessed as reduction in bacterial cell growth incubated for 18 to 20 hrs followed by re-plating on tryptic soy agar plates at 37 degC for 18 hrs by broth microdilution assay; assay type: functional
Staphylococcus aureus [11] = assay: Bactericidal activity against methicillin resistant Staphylococcus aureus NRS119 assessed as reduction in bacterial cell growth incubated for 18 to 20 hrs followed by re-plating on tryptic soy agar plates at 37 degC for 18 hrs by broth microdilution assay; assay type: functional
Streptococcus pneumoniae [12] = assay: Antibacterial activity against Cephalosporin resistant Streptococcus pneumoniae ATCC 51916 assessed as reduction in bacterial cell growth incubated for 18 to 20 hrs by broth microdilution method; assay type: functional
Streptococcus pneumoniae [13] = assay: Bactericidal activity against Cephalosporin resistant Streptococcus pneumoniae ATCC 51916 assessed as reduction in bacterial cell growth incubated for 18 to 20 hrs followed by re-plating on tryptic soy agar plates at 37 degC for 18 hrs by broth microdilution assay; assay type: functional
Staphylococcus aureus [14] = assay: Bactericidal activity against vancomycin resistant Staphylococcus aureus VRS12 assessed as reduction in bacterial cell growth incubated for 18 to 20 hrs followed by re-plating on tryptic soy agar plates at 37 degC for 18 hrs by broth microdilution assay; assay type: functional
Staphylococcus aureus [15] = assay: Antibacterial activity against vancomycin resistant Staphylococcus aureus VRS10 assessed as reduction in bacterial cell growth incubated for 18 to 20 hrs by broth microdilution method; assay type: functional
Staphylococcus aureus [16] = assay: Antibacterial activity against vancomycin resistant Staphylococcus aureus VRS12 assessed as reduction in bacterial cell growth incubated for 18 to 20 hrs by broth microdilution method; assay type: functional
Enterococcus faecium [17] = assay: Bactericidal activity against vancomycin resistant Enterococcus faecium ATCC 700221 assessed as reduction in bacterial cell growth incubated for 18 to 20 hrs followed by re-plating on tryptic soy agar plates at 37 degC for 18 hrs by broth microdilution assay; assay type: functional
Staphylococcus aureus [18] = assay: Antibacterial activity against methicillin-resistant Staphylococcus aureus USA400 assessed as reduction in CFU at 4 x MIC preincubated for 12 hrs in Tryptic soy broth followed by incubation for 18 to 20 hrs on TSA plate by time-kill assay; assay type: functional
Staphylococcus aureus [19] = assay: Bactericidal activity against Staphylococcus aureus ATCC 6538 assessed as reduction in bacterial cell growth incubated for 18 to 20 hrs followed by re-plating on tryptic soy agar plates at 37 degC for 18 hrs by broth microdilution assay; assay type: functional
Staphylococcus aureus [20] = assay: Bactericidal activity against vancomycin resistant Staphylococcus aureus VRS11a assessed as reduction in bacterial cell growth incubated for 18 to 20 hrs followed by re-plating on tryptic soy agar plates at 37 degC for 18 hrs by broth microdilution assay; assay type: functional
Pseudomonas aeruginosa [21] = assay: Bactericidal activity against Pseudomonas aeruginosa ATCC 15442 assessed as reduction in bacterial cell growth incubated for 18 to 20 hrs followed by re-plating on tryptic soy agar plates at 37 degC for 18 hrs by broth microdilution assay; assay type: functional
Listeria monocytogenes [22] = assay: Bactericidal activity against Listeria monocytogenes ATCC 19111 assessed as reduction in bacterial cell growth incubated for 18 to 20 hrs followed by re-plating on tryptic soy agar plates at 37 degC for 18 hrs by broth microdilution assay; assay type: functional
Escherichia coli [23] = assay: Antibacterial activity against Escherichia coli BW25113 assessed as reduction in bacterial cell growth incubated for 18 to 20 hrs by broth microdilution method; assay type: functional
Staphylococcus aureus [24] = assay: Antibacterial activity against methicillin resistant Staphylococcus aureus USA400 assessed as reduction in bacterial cell growth incubated for 18 to 20 hrs by broth microdilution method; assay type: functional
Pseudomonas aeruginosa [25] = assay: Antibacterial activity against Pseudomonas aeruginosa ATCC 15442 assessed as reduction in bacterial cell growth incubated for 18 to 20 hrs by broth microdilution method; assay type: functional
[26] = Solubility of compound in PBS after 2 hrs by turbidity based absorbance analysis; assay type: physicochemical
Staphylococcus aureus [27] = assay: Antibacterial activity against Staphylococcus aureus ATCC 6538 assessed as reduction in bacterial cell growth incubated for 18 to 20 hrs by broth microdilution method; assay type: functional
Acinetobacter baumannii [28] = assay: Antibacterial activity against Acinetobacter baumannii ATCC 19606 assessed as reduction in bacterial cell growth incubated for 18 to 20 hrs by broth microdilution method; assay type: functional
Staphylococcus aureus [29] = assay: Antibacterial activity against methicillin resistant Staphylococcus aureus NRS119 assessed as reduction in bacterial cell growth incubated for 18 to 20 hrs by broth microdilution method; assay type: functional
Staphylococcus aureus [30] = assay: Antibacterial activity against Staphylococcus aureus NRS107 assessed as reduction in bacterial cell growth incubated for 18 to 20 hrs by broth microdilution method; assay type: functional
Streptococcus pneumoniae [31] = assay: Bactericidal activity against Methicillin resistant Streptococcus pneumoniae ATCC 700677 assessed as reduction in bacterial cell growth incubated for 18 to 20 hrs followed by re-plating on tryptic soy agar plates at 37 degC for 18 hrs by broth microdilution assay; assay type: functional
[32] = tested on: Staphylococcus epidermidis; assay: Antibacterial activity against methicillin resistant Staphylococcus epidermidis NRS101 assessed as reduction in bacterial cell growth incubated for 18 to 20 hrs by broth microdilution method; assay type: functional
J774 [33] = assay: Cytotoxicity against mouse J774 assessed as reduction in cell viability at 16 ug/ml incubated for 24 hrs by MTS assay; assay type: cell-based; settings: j774, 24 h
Escherichia coli [34] = assay: BActericidal activity against Escherichia coli BW25113 assessed as reduction in bacterial cell growth incubated for 18 to 20 hrs followed by re-plating on tryptic soy agar plates at 37 degC for 18 hrs by broth microdilution assay; assay type: functional
Staphylococcus aureus [35] = assay: Antibacterial activity against methicillin-resistant Staphylococcus aureus USA300 assessed as reduction in bacterial cell growth incubated for 18 to 20 hrs by broth microdilution method; assay type: functional
Klebsiella pneumoniae [36] = assay: Antibacterial activity against Klebsiella pneumoniae BAA-1706 assessed as reduction in bacterial cell growth incubated for 18 to 20 hrs by broth microdilution method; assay type: functional
Klebsiella pneumoniae [37] = assay: Bactericidal activity against Klebsiella pneumoniae BAA-1706 assessed as reduction in bacterial cell growth incubated for 18 to 20 hrs followed by re-plating on tryptic soy agar plates at 37 degC for 18 hrs by broth microdilution assay; assay type: functional
J774 [38] = assay: Cytotoxicity against mouse J774 cells reduction in cell viability up to 32 ug/ml incubated for 24 hrs by MTS assay; assay type: cell-based; settings: j774, 24 h
[39] = tested on: Staphylococcus epidermidis; assay: Bactericidal activity against methicillin resistant Staphylococcus epidermidis NRS101 assessed as reduction in bacterial cell growth incubated for 18 to 20 hrs followed by re-plating on tryptic soy agar plates at 37 degC for 18 hrs by broth microdilution assay; assay type: functional
Escherichia coli [40] = assay: Antibacterial activity against Escherichia coli JW55031 harboring deltatolC mutant assessed as reduction in bacterial cell growth incubated for 18 to 20 hrs by broth microdilution method; assay type: functional
Escherichia coli [41] = assay: Bactericidal activity against Escherichia coli JW55031 harboring deltatolC mutant assessed as reduction in bacterial cell growth incubated for 18 to 20 hrs followed by re-plating on tryptic soy agar plates at 37 degC for 18 hrs by broth microdilution assay; assay type: functional
Acinetobacter baumannii [42] = assay: Bactericidal activity against Acinetobacter baumannii ATCC 19606 assessed as reduction in bacterial cell growth incubated for 18 to 20 hrs followed by re-plating on tryptic soy agar plates at 37 degC for 18 hrs by broth microdilution assay; assay type: functional

CN[C@H](CC(C)C)C(=O)N[C@H]1C(=O)N[C@@H](CC(N)=O)C(=O)N[C@H]2C(=O)N[C@H]3C(=O)N[C@H](C(=O)N[C@H](C(=O)O)c4cc(O)cc(O)c4-c4cc3ccc4O)[C@H](O)c3ccc(c(Cl)c3)Oc3cc2cc(c3O[C@@H]2O[C@H](CO)[C@@H](O)[C@H](O)[C@H]2O[C@H]2C[C@](C)(N)[C@H](O)[C@H](C)O2)Oc2ccc(cc2Cl)[C@H]1O [VANCOMYCIN]
MIC (Enterococcus faecium [1]): > 64 µg/mL | MBC (Staphylococcus aureus [2]): > 64 µg/mL | MIC (Staphylococcus aureus [3]): > 64 µg/mL | MBC (Staphylococcus aureus [4]): 4 µg/mL (≈ 2.76 µM) | inhibition (Staphylococcus aureus [5]): inactive | MIC (Listeria monocytogenes [6]): 1 µg/mL (≈ 0.69 µM) | MIC (Streptococcus pneumoniae [7]): 2 µg/mL (≈ 1.38 µM) | MBC (Enterococcus faecalis [8]): > 64 µg/mL | MIC (Enterococcus faecalis [9]): 32 µg/mL (≈ 22.1 µM) | MBC (Staphylococcus aureus [10]): 2 µg/mL (≈ 1.38 µM) | MBC (Staphylococcus aureus [11]): 1 µg/mL (≈ 0.69 µM) | MIC (Streptococcus pneumoniae [12]): 1 µg/mL (≈ 0.69 µM) | MBC (Streptococcus pneumoniae [13]): 1 µg/mL (≈ 0.69 µM) | MBC (Staphylococcus aureus [14]): 64 µg/mL (≈ 44.2 µM) | MIC (Staphylococcus aureus [15]): > 64 µg/mL | MIC (Staphylococcus aureus [16]): 64 µg/mL (≈ 44.2 µM) | MBC (Enterococcus faecium [17]): > 64 µg/mL | inhibition (Staphylococcus aureus [18]): Active | MBC (Staphylococcus aureus [19]): 1 µg/mL (≈ 0.69 µM) | MBC (Staphylococcus aureus [20]): > 64 µg/mL

C/C(=N\NC(=N)N)c1sc(-c2ccc(C#Cc3cccc(O)c3)cc2)nc1C
MIC (Enterococcus faecium [1]): ≤ 0.5 µg/mL | MBC (Staphylococcus aureus [2]): 4 µg/mL (≈ 10.3 µM) | MBC (Pseudomonas aeruginosa [21]): > 64 µg/mL | MIC (Staphylococcus aureus [3]): 4 µg/mL (≈ 10.3 µM) | MBC (Listeria monocytogenes [22]): 64 µg/mL (≈ 164 µM) | MIC (Escherichia coli [23]): > 64 µg/mL | MBC (Staphylococcus aureus [4]): 4 µg/mL (≈ 10.3 µM) | MIC (Staphylococcus aureus [24]): 2 µg/mL (≈ 5.13 µM) | MIC (Pseudomonas aeruginosa [25]): > 64 µg/mL | Activity (Staphylococcus aureus [5]): 0.92 log10CFU | solubility kinetic at 2 h [26]: 55 µM (≈ 21.4 µg/mL) | MIC (Listeria monocytogenes [6]): 8 µg/mL (≈ 20.5 µM) | MIC (Staphylococcus aureus [27]): 2 µg/mL (≈ 5.13 µM) | MIC (Acinetobacter baumannii [28]): > 64 µg/mL | MIC (Streptococcus pneumoniae [7]): 16 µg/mL (≈ 41.1 µM) | MIC (Staphylococcus aureus [29]): 2 µg/mL (≈ 5.13 µM) | MBC (Enterococcus faecalis [8]): 64 µg/mL (≈ 164 µM) | MIC (Enterococcus faecalis [9]): 32 µg/mL (≈ 82.2 µM) | MBC (Staphylococcus aureus [10]): 4 µg/mL (≈ 10.3 µM) | MIC (Staphylococcus aureus [30]): 4 µg/mL (≈ 10.3 µM) | MBC (Streptococcus pneumoniae [31]): 32 µg/mL (≈ 82.2 µM) | MBC (Staphylococcus aureus [11]): 4 µg/mL (≈ 10.3 µM) | MIC (Streptococcus pneumoniae [12]): 8 µg/mL (≈ 20.5 µM) | MIC [32]: 2 µg/mL (≈ 5.13 µM) | Activity (J774 [33]): Non-Toxic | MBC (Escherichia coli [34]): > 64 µg/mL | MIC (Staphylococcus aureus [35]): 4 µg/mL (≈ 10.3 µM) | MBC (Streptococcus pneumoniae [13]): 32 µg/mL (≈ 82.2 µM) | MBC (Staphylococcus aureus [14]): 4 µg/mL (≈ 10.3 µM) | MIC (Staphylococcus aureus [15]): 4 µg/mL (≈ 10.3 µM) | MIC (Staphylococcus aureus [16]): 4 µg/mL (≈ 10.3 µM) | MIC (Klebsiella pneumoniae [36]): > 64 µg/mL | MBC (Klebsiella pneumoniae [37]): > 64 µg/mL | MBC (Enterococcus faecium [17]): 1 µg/mL (≈ 2.57 µM) | Activity (J774 [38]): Non-Toxic | MBC (Staphylococcus aureus [19]): 4 µg/mL (≈ 10.3 µM) | MBC [39]: 2 µg/mL (≈ 5.13 µM) | MBC (Staphylococcus aureus [20]): 4 µg/mL (≈ 10.3 µM) | MIC (Escherichia coli [40]): 64 µg/mL (≈ 164 µM) | MBC (Escherichia coli [41]): > 64 µg/mL | MBC (Acinetobacter baumannii [42]): > 64 µg/mL
